Measurements reported in patent EP0335545B2, “Pharmaceutical formulations for parenteral use” (UNIVERSITY OF FLORIDA, priority 1988, dated 1989).
≈ marks a conversion by molar mass, not a printed value.

Experiments:
[1] = physchem; conditions: 50% w/w aqueous hpcd
Protocol: An excess of E2-CDS was sonicated with an aqueous solution of the appropriate solubilizing agent for 30 minutes. The suspension was then centrifuged, filtered through 0.45 µm polyvinylidene difluoride (Millex-HV4, Millipore®) membranes and analyzed by HPLC. […] An estimation of the bulk equilibrium constant was obtained by correlating the millimolarity of E2-CDS solubilized and the millimolarity of the cyclodextrin added. This latter value was calculated using the average molecular weight of the isomeric mixture determined by mass spectroscopy. The solubilizing effect of a 50% w/w solution of HPCD was also examined for a series of steroids and dihydropyridines (CDS). These studies were carried out in a similar manner to those previously described.
For the CDS, the wavelength monitored was 360 nm while for estrogen 220 nm was used.
Separation was achieved on an Analytical Sciences, Inc. (ASI) 10 µm particle size, C18 reversed phase 30 cm x 3.9 mm i.d. analytical column. The flow rate was 1 mL/min, the compounds were detected at 360 nm and in all determinations the temperature was ambient. […] For the GABA-CDS1, a mobile phase consisting of 50:1:1:48 of the same components was required. […] Other compounds were assayed spectrophotometrically.

[2] = Aqueous solubility and stability of the E2-CDS-HPCD complex; format: physicochemical
Protocol: The E2-CDS-HPCD complex contains about 40 mg of E2-CDS/g and easily gives aqueous solutions containing 5 mg E2-CDS/mL at 20% w/v cyclodextrin. […] The halflife of E2-CDS in such a solution at room temperature in the dark is about 12.5 days (rate: 0.0554 ± 0.0047d^-1).

## CN1C=CCC(C(=O)O[C@H]2CC[C@H]3[C@@H]4CCc5cc(O)ccc5[C@H]4CC[C@]23C)=C1 [Example E2-CDS, 3-Hydroxy-17β-[(1-methyl-1,4-dihydropyridin-3-yl)carbonyl]oxyestra-1,3,5(10)-triene]
[1]
  solubility: 22 mg/mL (≈ 55.9 mM)
[2]; 5 mg E2-CDS/mL at 20% w/v cyclodextrin, room temperature in the dark
  rate (of degradation): 0.0554 ± 0.0047 day⁻¹
[2]; 20% w/v aqueous hpcd, 5 mg E2-CDS/mL at 20% w/v cyclodextrin, room temperature in the dark
  half-life: ~12.5 days
[2]; 20% w/v cyclodextrin versus water
  increase in aqueous solubility by complexation: 25,000 fold
